# From the METLIN SMRT retention time set (Domingo-Almenara et al. 2019)
# Assay: gradient 5% acetonitrile 3 min, to 50% in 2 min, to 85% in 15 min, held 3 min, 100 µL/min
# Conditions: column: Zorbax Extend-C18 2.1 x 50 mm; eluents: water / acetonitrile, 0.1% formic acid
# How it was run: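 Retention time was recorded from adduct peaks, which were picked computationally and each inspected manually. Pure standards ran in mixtures of ~100 molecules on HPLC coupled to a quadrupole time-of-flight mass spectrometer, in positive and negative ionization mode, through a Zorbax Extend-C18 column (2.1 × 50 mm, 1.8 μm) at 100 μL/min. Eluents were water and acetonitrile, each with 0.1% formic acid.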
row,SMILES,RP-LC retention time [s]
1,Cc1nc(-c2ccc(NC(=O)N3CCCc4ccccc43)cc2)no1,900
2,CN1C(=O)C(CC(=O)N2CCCCC2)=C2CCCCC21 (configuration not stated),677
3,CCCn1cc(C(=O)NCc2cccnc2)c2cccnc21,580
4,Cn1nc(C(=O)N2CCCC2)c2c1CCN(C(=O)CCC(=O)N1CCN(c3ccccn3)CC1)C2,579
5,CCCn1cc(C(=O)N2CCC(N3CCCCC3)CC2)c2cccnc21,567
6,Cc1ccc(Nc2c(-c3ccccc3O)nc3ccccn23)cc1,739
7,CC(C)CCNC(=O)C1CCCN(c2nc3ccsc3c(=O)n2Cc2ccccc2)C1 (configuration not stated),955
8,CCN1CCC2(CC1)N=C(c1ccccc1)CC(c1cccc(OC)c1O)N2 (configuration not stated),584
9,Cc1nc(-n2cccc2)sc1C(=O)Nc1ccc(-c2cn3c(n2)SCC3)cc1,627
10,CCn1cc(CN2CCC(C(=O)NC(C)c3ccccc3)CC2)c2cc(OC)ccc21 (configuration not stated),707
11,O=C(CSc1nnc(NC(=O)C2(c3cccs3)CCCC2)s1)c1ccccc1,1050
12,Cc1nc(CCNC(=O)[C@H]2CCCN2C(=O)c2ccc(Cl)cc2)cs1,674
13,O=C(NCc1cccnc1)c1cccn1Cc1noc(-c2ccc(Cl)cc2)n1,701
14,CN(C)C(=O)Oc1ccc2c(c1)O/C(=C\C=C\c1ccccc1)C2=O,1060
15,CCNC(=O)C1CCc2sc(C(=O)N3CCCCCC3)cc2C1 (configuration not stated),748
16,COc1ccc(Cl)cc1NC(=O)CSc1ccc(-c2ccccn2)nn1,934
17,O=C(Cn1nc2c(N3CCCCCC3)nccn2c1=O)Nc1ccc(F)cc1F,705
18,Cc1ccc(CC#N)c(-c2c(CC#N)ccc(C)c2C)c1C,1170
19,CC1(c2noc(C3CC3)n2)CCN(C(=O)CCc2cc(Cl)no2)CC1,853
20,O=C(Cn1cccn1)N1CC(F)(F)C[C@H]1c1nc(C2CC2)no1,723

row,SMILES,RP-LC retention time [s]
1,CC1CCN(C(=O)c2ccc3ncnc(N4CCCCC4)c3c2)CC1,638
2,O=C(Cn1cccn1)NC1CCc2nnc(C3CC3)n2CC1 (configuration not stated),543
3,COc1ccc2cc(C(=O)N3CC(n4cc(COCC5CC5)nn4)C3)[nH]c2c1,745
4,Cn1cnc2c(C(=O)Nc3ccc(F)cc3)nn(-c3ccc(Cl)cc3)c2c1=O,956
5,O=S(=O)(CCOc1ccccc1)NCc1ccccc1,674
6,CC(C)Sc1nnc(N2CCN(c3ccc(F)cc3)CC2)s1,1000
7,CCOC(=O)c1ccc(N2C=C(C#N)S(=O)(=O)c3cc(F)ccc32)cc1,907
8,CCC(NC(=O)C1CCN(c2cncnc2N2CCOCC2)CC1)c1ccc(OC)cc1 (configuration not stated),643
9,COc1ccccc1CNc1nccc(-n2nc(C)cc2C)n1,840
10,Cc1ccn2cc(C(=O)NCc3cccs3)nc2c1,591
11,CCN(CC)C(=O)c1ccc2c(c1)nnn2CCNC(=O)Nc1ccc2c(c1)CCC2,764
12,CC(C)NC(=O)CCn1c(=O)c2cc(Cl)ccc2n2c(=O)n(Cc3ccccc3)nc12,856
13,COc1ccc(NC(=O)C2CCCN(c3nccnc3Oc3ccccc3)C2)cc1Cl (configuration not stated),1050
14,Cc1nc(NC(=O)c2cc(C3CC3)n(C3CCS(=O)(=O)C3)n2)sc1C (configuration not stated),764
15,O=C(Nc1cccc2ccc(-n3ccnc3)nc12)c1ccsc1,615
16,Cc1cc(NC(=O)N2CCC(n3cnc4cccnc43)CC2)ccc1Br,684
17,O=C(Nc1cc(-c2ccsc2)no1)c1ccc(Cl)cc1,1010
18,O=C(Nc1cnc(-c2cccc(Cl)c2)nc1)C1CCCC1,1100
19,Cc1c(C(=O)NC2CCCC2)cnn1-c1ccc(-c2nc(C3CC3)no2)cn1,999
20,CCC(=O)N1CCc2c(C(=O)N3CCN(c4ccccc4)CC3)cccc21,829

# Second part, the compound after the results:
row,RP-LC retention time [s],SMILES
1,1100,O=C(Nc1ccc(Cl)cc1)C1CCN(S(=O)(=O)c2ccc(-c3noc(C4CC4)n3)cc2)CC1
2,751,O=C(C1=CN(c2ccc(F)c(F)c2)c2ccccc2S1(=O)=O)N1CCOCC1
3,769,COc1ccc(CC(=O)N2CCC3(CC2)NC(=O)c2cc(C)ccc2N3C)cc1
4,829,CO[C@H]1C(=O)N(C(C)C)[C@H]1C1CCN(S(=O)(=O)Cc2ccccc2)CC1
5,771,O=C(Cc1c(F)cccc1Cl)Nc1cnn(-c2ncc(N3CCCC3)cn2)c1
6,610,Cc1[nH]c(C(=O)N2CCC(CC(=O)NCCCN3CCCC(C)C3)CC2)c(C)c1C (configuration not stated)
7,828,CCC(C)C(=O)N1CCCN(C2=NS(=O)(=O)C(c3ccc(C)cc3)=C2C)CC1 (configuration not stated)
8,893,O=C1NC2(CCN(C(=O)Nc3ccc(Br)cc3)CC2)N=C1c1cccc(F)c1
9,739,Cc1ccc(F)cc1NS(=O)(=O)c1cc(-c2[nH]ncc2C(=O)N2CCCC2)oc1C
10,749,CSc1ccc(-c2nc3c(C)cccn3c2Nc2ccc3c(c2)OCCO3)cc1
11,612,COc1ccc(NC(=O)NCCc2cn(C)c3ncccc23)cc1OC
12,1130,CCN1C(=O)C2(CCN(S(=O)(=O)c3ccc(C(F)(F)F)cc3)CC2)c2ccccc21
13,734,COc1cc(NC(=O)CN2C(=O)C3CCCCN3c3ccc(C(=O)N(C)C)cc32)cc(OC)c1OC (configuration not stated)
14,820,O=c1ccc(S(=O)(=O)N2CCCC2)cn1Cc1ccc(F)cc1
15,1010,Cc1cc(C)c(S(=O)(=O)N2CCC(C)(C(=O)NCc3ccc4c(c3)OCO4)CC2)cc1C
16,807,CCCC(C)C(=O)N1CC2CN(S(=O)(=O)c3ccccc3)CC(C1)O2 (configuration not stated)
17,774,COc1ccccc1C(=O)NC1(C(F)(F)F)C(=O)N(CC2CCCO2)C(C)=C1C(C)=O (configuration not stated)
18,787,CCC(C)NC(=O)c1nnc(-c2ccc(S(=O)(=O)N3CCOCC3)cc2)o1 (configuration not stated)
19,925,COc1ccc(S(=O)(=O)N(C)CC2(C)CCOCC2)cc1Cl
20,669,CSc1cccc(NC(=O)Cn2nc3n(c2=O)CCCC3)c1
21,1030,COC1CCC12CCN(S(=O)(=O)c1ccc(F)c(C)c1)CC2 (configuration not stated)
22,833,Cc1cc(C)n(-c2ccnc(N3CCC(C(=O)NCc4ccc(F)cc4)CC3)n2)n1
23,789,O=C(Nc1nc2c(s1)CCCC2C(=O)NCc1ccco1)c1ccc2c(c1)OCO2 (configuration not stated)
24,618,Cc1ccc2c(C(=O)NCc3ccc(C)o3)cc(NC(=O)C3CCC3)cc2n1
25,815,Cc1nnc(-c2ccc(S(=O)(=O)N3CCC(C)CC3)o2)o1
26,784,Cc1ccc(S(=O)(=O)N2CCC(n3cnnc3C(C)C)CC2)c(C)c1
27,952,Cc1cccc2c(=O)n(C3CCN(C(=O)Nc4cccc(C(F)(F)F)c4)CC3)cnc12
